Reference: the NIST ThermoML archive (doi:10.1016/j.jct.2018.12.031)

Experiment: xn = mol fraction of the nth substance listed
Conditions: 100 kPa, Liquid; for speed of sound: Frequency=3 MHz, Linear variable-path acoustic interferometer; for mass density: Pycnometric method

N#Cc1ccccc1 [benzonitrile] + C=C(C)C(=O)OC
Conditions	mass density [kg/m3]	speed of sound [m/s]
293.15 K, x1 = 0.0652	948.11	1220.4
293.15 K, x1 = 0.1303	952.71	1239.9
293.15 K, x1 = 0.1922	956.98	1258.1
293.15 K, x1 = 0.271	962.27	1279.6
293.15 K, x1 = 0.3371	966.59	1296.9
293.15 K, x1 = 0.4174	971.69	1316.8
293.15 K, x1 = 0.4872	976	1333.2
293.15 K, x1 = 0.5689	980.9	1351.4
293.15 K, x1 = 0.6398	985.02	1366.6
293.15 K, x1 = 0.7089	988.92	1381.1
293.15 K, x1 = 0.7767	992.63	1394.4
293.15 K, x1 = 0.8571	996.88	1410
293.15 K, x1 = 0.9252	1000.34	1422.4
293.15 K, x1 = 1	1003.99	1436.9
298.15 K, x1 = 0.0652	942.55	1203.9
298.15 K, x1 = 0.1303	947.32	1223.6
298.15 K, x1 = 0.1922	951.75	1241.7
298.15 K, x1 = 0.271	957.23	1263.3
298.15 K, x1 = 0.3371	961.71	1280.2
298.15 K, x1 = 0.4174	966.99	1299.9
298.15 K, x1 = 0.4872	971.45	1316.2
298.15 K, x1 = 0.5689	976.51	1334.3
298.15 K, x1 = 0.6398	980.77	1349.3
298.15 K, x1 = 0.7089	984.8	1363.6
298.15 K, x1 = 0.7767	988.63	1376.7
298.15 K, x1 = 0.8571	993.01	1392.3
298.15 K, x1 = 0.9252	996.57	1404.6
298.15 K, x1 = 1	1000.32	1418.2
303.15 K, x1 = 0.0652	936.99	1189.3
303.15 K, x1 = 0.1303	941.93	1209
303.15 K, x1 = 0.1922	946.52	1227
303.15 K, x1 = 0.271	952.19	1248.3
303.15 K, x1 = 0.3371	956.83	1265.4
303.15 K, x1 = 0.4174	962.29	1284.8
303.15 K, x1 = 0.4872	966.9	1300.8
303.15 K, x1 = 0.5689	972.12	1319
303.15 K, x1 = 0.6398	976.52	1333.8
303.15 K, x1 = 0.7089	980.68	1348
303.15 K, x1 = 0.7767	984.63	1360.9
303.15 K, x1 = 0.8571	989.14	1376
303.15 K, x1 = 0.9252	992.8	1388.2
303.15 K, x1 = 1	996.65	1400.7
308.15 K, x1 = 0.0652	931.43	1173.8
308.15 K, x1 = 0.1303	936.55	1193.9
308.15 K, x1 = 0.1922	941.29	1211.7
308.15 K, x1 = 0.271	947.15	1232.7
308.15 K, x1 = 0.3371	951.93	1249.6
308.15 K, x1 = 0.4174	957.57	1268.8
308.15 K, x1 = 0.4872	962.33	1284.7
308.15 K, x1 = 0.5689	967.73	1302.9
308.15 K, x1 = 0.6398	972.27	1317.9
308.15 K, x1 = 0.7089	976.56	1332
308.15 K, x1 = 0.7767	980.63	1345.5
308.15 K, x1 = 0.8571	985.27	1360.6
308.15 K, x1 = 0.9252	989.03	1372
308.15 K, x1 = 1	992.98	1384
313.15 K, x1 = 0.0652	925.87	1157
313.15 K, x1 = 0.1303	931.16	1177.3
313.15 K, x1 = 0.1922	936.06	1195.3
313.15 K, x1 = 0.271	942.12	1216.5
313.15 K, x1 = 0.3371	947.05	1233.2
313.15 K, x1 = 0.4174	952.87	1252.4
313.15 K, x1 = 0.4872	957.78	1268.5
313.15 K, x1 = 0.5689	963.35	1286.5
313.15 K, x1 = 0.6398	968.02	1302.2
313.15 K, x1 = 0.7089	972.44	1316.5
313.15 K, x1 = 0.7767	976.63	1330.5
313.15 K, x1 = 0.8571	981.4	1345.5
313.15 K, x1 = 0.9252	985.26	1357.2
313.15 K, x1 = 1	989.31	1368.2
318.15 K, x1 = 0.0652	920.31	1140.3
318.15 K, x1 = 0.1303	925.77	1160.8
318.15 K, x1 = 0.1922	930.83	1179
318.15 K, x1 = 0.271	937.08	1200
318.15 K, x1 = 0.3371	942.18	1216.8
318.15 K, x1 = 0.4174	948.18	1236
318.15 K, x1 = 0.4872	953.23	1251.9
318.15 K, x1 = 0.5689	958.96	1270.3
318.15 K, x1 = 0.6398	963.77	1286
318.15 K, x1 = 0.7089	968.31	1300.9
318.15 K, x1 = 0.7767	972.61	1315
318.15 K, x1 = 0.8571	977.51	1330.8
318.15 K, x1 = 0.9252	981.48	1342.4
318.15 K, x1 = 1	985.64	1352.9
